{"source": "paper PMC6768323", "about": "“Adverse Maternal, Fetal, and Postnatal Effects of Hexafluoropropylene Oxide Dimer Acid (GenX) from Oral Gestational Exposure in Sprague-Dawley Rats” (Environmental Health Perspectives, 2019)", "key": {"CV-1 cells": {"test_system": "CV-1 cells", "test": "MTT cytotoxicity", "assay_type": "cell-based", "protocol": "HFPO-DA was assessed for agonism and antagonism of transcriptional activation for estrogen (ER), androgen (AR), and glucocorticoid receptors (GR). Method details for in vitro transactivation assays for ER ([Wilson et al. 2004a]), AR ([Hartig et al. 2002], [2007]), and GR ([Conley et al. 2017]; [Medlock Kakaley et al. 2018]) have been previously reported. Briefly, for ER activity we utilized the stably transfected T47D-KBluc cell line [publicly available via American Type Culture Collection (ATCC); CRL-2865] according to protocols provided by ATCC with the modification of Dulbecco’s Modified Eagle Media (DMEM) as the cell culture media instead of Roswell Park Memorial Institute (RPMI) media. […] All assays were run in 96-well plates and luminescence was detected using a BMG Fluostar Omega luminometer (BMG Labtech) following 24-h exposure. […] Cellular cytotoxicity across the dosing range was determined for CV-1 cells utilizing the 3-(4,5-dimethylthiazol-2-yl)-2,5-diphenyltetrazolium bromide (MTT) dye ([Mosmann 1983]). HFPO-DA was analyzed using n=2–3 biological replicate assay plates (i.e., unique cell passages) with four technical replicates per treatment per plate."}, "[1]": {"test_system": "pregnant Sprague-Dawley rats", "test": "Maternal serum thyroid hormones and lipid panel", "assay_type": "in vivo", "protocol": "Maternal serum samples from the first two blocks were analyzed for thyroid hormones and a standard lipid panel. Total triiodothyronine ( T3 ) and thyroxine ( T4 ) were quantified by radioimmunoassay (RIA) according to manufacturer specifications (IVD Technologies). […] Thyroid hormone RIA values were considered below detection when specific binding ( B/B0 ) was ≥90% ( 0.2 ng/mL for T3 and 2 ng/mL for T4 ) ([Sui and Gilbert 2003]). Serum total cholesterol, high-density lipoproteins (HDL), low-density lipoproteins (LDL), and triglycerides were quantified using a Beckman Coulter AU480 clinical chemistry analyzer (Beckman Coulter, Inc.) as per manufacturer’s protocol. All reagents were obtained from the instrument manufacturer except for the LDL assay, which was obtained from Diazyme Laboratories."}, "fetal testis": {"test_system": "fetal testis", "test": "Ex vivo fetal testis testosterone production", "assay_type": "in vivo, Sprague-Dawley rats", "details": "any dose", "protocol": "For the first two blocks, spanning the full dose range, late gestation (GD18) dams were euthanized by decapitation at ∼2h after the final oral dose [ ∼0830–1000 hours Eastern Standard Time (EST)]. Trunk blood was collected and serum isolated via centrifugation ( 10,000×g for 15 min at 4°C) in vacutainer tubes, transferred to 1.5-mL microcentrifuge tubes and stored at −80°C . Dam liver weight was recorded and a sample of liver tissue was collected into a polypropylene microcentrifuge tube containing 500μL TRIzol Reagent (Invitrogen) on ice. Fetuses were removed and two randomly selected fetuses per litter were weighed. […] Ex vivo fetal testis testosterone production was measured as previously reported ([Wilson et al. 2004b]) except the radioimmunoassay (RIA) utilized here was supplied by ALPCO (Catalog No. 72-TESTO-CT2, ALPCO). […]\nFetal testis testosterone production was normalized to the mean control concentration within a given block and analyzed as percentage of control values across blocks. Maternal liver weight was analyzed using body weight as a covariate within PROC GLM followed by pairwise comparison using LSMEANS, this analysis produces linear regressions of body weight versus liver weight for each dose group. […]"}, "Sprague-Dawley rats": {"test_system": "Sprague-Dawley rats", "details": "cited from earlier work"}}, "note": "Where “and” joins values, the source holds several entries; their conditions need not be identical. Equal values may be shown once.", "data": [{"smiles": "O=C(O)C(F)(OC(F)(F)C(F)(F)C(F)(F)F)C(F)(F)F", "note": "(stereo not shown) [HFPO-DA, Hexafluoropropylene oxide dimer acid]", "values": [{"measurement": "cytotoxic dose", "setting": "CV-1 cells", "result": 300, "unit": "µM"}, {"measurement": "serum total T3 in the top two dose levels", "setting": "[1]; 250 and 500 mg/kg/d", "result": "< 0.2", "unit": "ng/mL"}, {"measurement": "Dam serum HDL", "setting": "[1]; GD18, 1-500 mg/kg/d", "result": "36.3 ± 3.7 mg/dL and 36.0 ± 2.5 mg/dL and 33.0 ± 3.6 mg/dL and 37.0 ± 1.2 mg/dL and 36.7 ± 4.7 mg/dL and 28.7 ± 3.2 mg/dL and 19.3 ± 2.7 mg/dL"}, {"measurement": "Dam serum LDL", "setting": "[1]; GD18, 1-500 mg/kg/d", "result": "14.7 ± 0.9 mg/dL and 14.0 ± 1.2 mg/dL and 12.7 ± 0.9 mg/dL and 12.3 ± 1.9 mg/dL and 13.3 ± 1.9 mg/dL and 19.0 ± 3.2 mg/dL and 14.7 ± 0.3 mg/dL and 14.0 ± 0.6 mg/dL"}, {"measurement": "dose with lower maternal serum thyroid hormone and lipid profiles", "setting": "[1]; oral GD14-18", "result": "≥ 30", "unit": "mg/kg"}, {"measurement": "dose with significantly lower serum total T3", "setting": "[1]; rat, in vivo", "result": "≥ 30", "unit": "mg/kg"}, {"measurement": "dose with significantly lower serum triglycerides", "setting": "[1]; rat, in vivo", "result": 500, "unit": "mg/kg"}, {"measurement": "dose with significantly lower total T4 and LDL", "setting": "[1]; rat, in vivo", "result": "≥ 125", "unit": "mg/kg"}, {"measurement": "fetal testis testosterone production versus controls", "setting": "fetal testis", "result": "not significantly different from controls at any dose"}, {"measurement": "NOAEL", "setting": "Sprague-Dawley rats; ref Caverly Rae et al. 2015", "result": 1, "unit": "mg/kg per day"}, {"measurement": "upper dose tolerated in the rat", "setting": "Sprague-Dawley rats; ref Caverly Rae et al. 2015", "result": 500, "unit": "mg/kg per day"}, {"measurement": "NOAEL, prenatal developmental toxicity study", "setting": "Sprague-Dawley rats; ref DuPont 2010", "result": 10, "unit": "mg/kg per day"}, {"measurement": "dose overtly toxic to the dam", "setting": "Sprague-Dawley rats; ref DuPont 2010", "result": "1,000 mg/kg per day"}]}]}
